We go through ten compounds from ChEMBL document CHEMBL1139249, “N,N-Dichloroaminosulfonic acids as novel topical antimicrobial agents” (Bioorg Med Chem Lett, 2009).

One may read the MBC as the smallest concentration meeting the test's criterion for killing. A high value points to less potent killing. A word on the MFC: it is the lowest tested concentration that kills the fungus rather than only halting it. Read a high MFC as weaker fungicidal potency. By half-life is commonly meant the time in which the quantity being followed falls by half. Read a low half-life as fast loss.

In brackets after ≈: the same amount, converted by molar mass. Bounds are passed on as bounds.

For data set [1], the system named is Staphylococcus aureus. Description: Antibacterial activity against Staphylococcus aureus MCC 91731 after 16 to 20 hrs by CLSI standard method. The class given is functional.
Data set [2] has as its system Candida albicans. The experiment in a line: Antifungal activity against Candida albicans MCC 50319 after 16 to 20 hrs by CLSI standard method. The class given is functional.
The nature of data set [3]: Cytotoxicity against mouse L929 cells. Conditions: read-out: CT50 (the source's name). Format: cell-based.
Data set [4] is described as follows: Aqueous solubility at pH 4. The conditions noted are these: aqueous solution. The class given is physicochemical.
Data set [5] is described as follows: Therapeutic index, ratio of CT50 for mouse L929 cells to MBC for Staphylococcus aureus. The class given is cell-based. The conditions noted are these: read-out: TI.
Data set [6] is described as follows: Therapeutic index, ratio of CT50 for mouse L929 cells to MBC for Escherichia coli. The class given is cell-based. The conditions noted are these: read-out: TI.
Data set [7] is described as follows: Therapeutic index, ratio of CT50 for mouse L929 cells to MFC for Candida albicans. The class given is cell-based. Conditions: read-out: TI.
Data set [8] concerns Staphylococcus aureus. Description: Antibacterial activity against Staphylococcus aureus ATCC 29213 after 16 to 20 hrs by CLSI standard method. The class given is functional.
Data set [9] deals with Escherichia coli. The experiment in a line: Antibacterial activity against Escherichia coli ATCC 25922 after 16 to 20 hrs by CLSI standard method. The class given is functional.
In data set [10] the test system is Candida albicans. The experiment in a line: Antifungal activity against Candida albicans ATCC 10231 after 16 to 20 hrs by CLSI standard method. Format: functional.
The subject of data set [11] is Escherichia coli. Description: Antibacterial activity against Escherichia coli MCC 80392 after 16 to 20 hrs by CLSI standard method. Format: functional.

Consider `CCOP(=O)(O)CC(C)(C)N(Cl)Cl`, for which the minimum bactericidal concentration (MBC) with Staphylococcus aureus [1] was found to be 2 µg/mL (≈ 8 µM). In addition, the MFC in the data set with Candida albicans [2] was found to be 32 µg/mL (≈ 128 µM). Also, the CC50 in data set [3] worked out at 80 µg/mL (≈ 320 µM). In data set [4], the half-life was over 18 days. Besides, the selectivity ratio in data set [5] amounted to 8; in data set [6], 8; in [7], 2.
With `CC(=O)NS(=O)(=O)CC(C)(C)N(Cl)Cl`, the MBC was 1 µg/mL (≈ 3.8 µM) in the data set with Staphylococcus aureus [8] and 2 µg/mL (≈ 7.6 µM) with Escherichia coli [9]. This compound displayed a minimal fungicidal concentration (MFC) against Candida albicans [10] of 64 µg/mL (≈ 243 µM). Besides, the half-life in data set [4] was 44 days. Moreover, the selectivity ratio in [5] worked out at 8; in data set [6] it was 8; in data set [7], 2.
With `CC(C)(COC(=O)CCS(=O)(=O)O)N(Cl)Cl`, the minimal bactericidal concentration (MBC) in the data set with Staphylococcus aureus [1] was determined as 1 µg/mL (≈ 3.4 µM); in the data set with Escherichia coli [9], 2 µg/mL (≈ 6.8 µM). Besides, the MFC in the data set with Candida albicans [2] worked out at 4 µg/mL (≈ 13.6 µM). Moreover, in data set [3], the CC50 came to 130 µg/mL (≈ 442 µM). This compound had a half-life in data set [4] of 64 days. The selectivity ratio in [5] was 8; in [6], 8; in data set [7], 2.
For `CC(C)(CS(=O)(=O)[O-])N(Cl)Cl.[Na+]`, the MBC was 1 µg/mL in the data set with Staphylococcus aureus [1] and 4 µg/mL in the data set on Escherichia coli [11]. For the same compound, in the data set on Candida albicans [2], the MFC stood at 32 µg/mL. For the same compound, the CC50 in data set [3] came to 1200 µg/mL. In addition, the half-life in data set [4] was over 200 days. In addition, the selectivity ratio stood at 8 in data set [5], 8 in data set [6] and 2 in [7].
As for `CC(C)(CS(=O)(=O)CCS(=O)(=O)O)N(Cl)Cl`, the MBC with Staphylococcus aureus [8] stood at 8 µg/mL (≈ 25.5 µM); with Escherichia coli [9] it was 4 µg/mL (≈ 12.7 µM). The same compound showed a minimal fungicidal concentration (MFC) against Candida albicans [10] of 64 µg/mL (≈ 204 µM). Moreover, the CC50 in data set [3] came to 1820 µg/mL (≈ 5790 µM). The compound also displayed a half-life in [4] of over 95 days. The selectivity ratio was found to be 8 in data set [5], 8 in data set [6] and 2 in data set [7].
`CC(C)(CS(=O)(=O)O)C(=O)OCC(C)(C)N(Cl)Cl`: the MBC against Staphylococcus aureus [8] was 8 µg/mL (≈ 24.8 µM); against Escherichia coli [9], 4 µg/mL (≈ 12.4 µM). This compound also showed an MFC against Candida albicans [10] of 16 µg/mL (≈ 49.7 µM). For the same compound, the CC50 in data set [3] came out at 840 µg/mL (≈ 2610 µM). Besides, the half-life in data set [4] was 80 days. For the same compound, the values for the selectivity ratio in data set [5], in [6] and in [7] were 8, 8 and 2, respectively.
As to `CC(C)(CCCS(=O)(=O)O)N(Cl)Cl`, the MBC with Staphylococcus aureus [1] and against Escherichia coli [11] was 8 µg/mL (≈ 32 µM) in each case. The compound also registered an MFC against Candida albicans [2] of over 128 µg/mL. Besides, in data set [3], the CC50 stood at 640 µg/mL (≈ 2560 µM). This compound also showed a half-life in [4] of 16 days. The selectivity ratio came to 8 in data set [5], 8 in data set [6] and 2 in data set [7].
Take `CC(C)(CCS(=O)(=O)O)N(Cl)Cl`: the MBC with Staphylococcus aureus [8] and in the data set with Escherichia coli [9] was 4 µg/mL (≈ 16.9 µM) in each case. In the data set with Candida albicans [10], the minimal fungicidal concentration (MFC) was determined as 16 µg/mL (≈ 67.8 µM). Moreover, the CC50 in [3] amounted to 1900 µg/mL (≈ 8050 µM). The half-life in [4] is 174 days. Moreover, the selectivity ratio in [5] stood at 8; in [6], 8; in [7] it was 2.
In the case of `CC(C)(CC(=O)OCCS(=O)(=O)O)N(Cl)Cl`, the MBC against Staphylococcus aureus [8] and in the data set with Escherichia coli [9] was 2 µg/mL (≈ 6.8 µM) in each case. The compound also displayed an MFC in the data set on Candida albicans [10] of 64 µg/mL (≈ 218 µM). Also, the CC50 in data set [3] is 270 µg/mL (≈ 918 µM). In data set [4], this compound showed a half-life of over 95 days. Besides, the results for the selectivity ratio in [5], in data set [6] and in data set [7] were 8, 8 and 2, respectively.
Turning to `CC(C)(CP(=O)(O)O)N(Cl)Cl`, the values for the MBC against Staphylococcus aureus [8] and in the data set on Escherichia coli [9] were 16 µg/mL (≈ 72.1 µM) and 8 µg/mL (≈ 36 µM), respectively. Moreover, in the data set with Candida albicans [10], the minimal fungicidal concentration (MFC) is 16 µg/mL (≈ 72.1 µM). Further, the CC50 in data set [3] is 130 µg/mL (≈ 586 µM). The compound further showed a half-life in data set [4] of 23 days. Also, the selectivity ratio is 8 in data set [5], 8 in [6] and 2 in [7].
